Measurements published in patent US9763444B2, “Compositions and methods for repelling blood-sucking and biting insects, ticks and mites” (The United States of America, as represented by the …, priority 2013, dated 2017).

Legend:
[1] = tested on: Ae. aegypti; test: Complete Protection Time test on treated cloth (duration of protection); type: in vivo, Aedes aegypti; conditions: Dosage 0.75 mg/cm^2 on cloth; for Duration of protection against Ae. aegypti, M-3 Days Protection: subject M-3
Method: Bioassay for mosquito repellent activity: Repellency screening test for experimental chemicals were carried out to identify candidates that might be useful repellents. The repellent efficacy was compared to that of the standard repellent, DEET. Experimental compounds were assessed in one of two ways: (1) a range of concentration was evaluated to determine the minimum effective dosage (MED) which was the concentration threshold of where the repellent began to fail and allowed bites, or (2) a predetermined concentration of each repellent was applied to cloth and the activity was evaluated over several days (or in some cases months) (Katritzky, A. R., et al., Proc. Nat. Acad. Sci. (US), 105, 7359-7364 (2008); Katritzky, A. R., et al., Journal of Med. Entomol., 47: 924-938 (2010)). When conducting assays for repellency, a failure point was also predetermined for those measurements. Since experiments described herein used about 500 female mosquitoes per test, the failure point was set at 1% (equal to 5 bites) received during a test interval. From 3 to 5 volunteers participated in the screening of each set of chemicals. Complete Protection Time Test: Complete protection time (CPT) on treated cloth is a method of screening that is used to determine the repellent duration for experimental chemicals that have not been examined for safe use on humans. The standard repellent DEET was used as a positive control as a benchmark by which to compare the repellents. Experimental compounds were prepared in solution by combining 0.075 g of experimental chemical with 1 mL of acetone in a 7.1-mL screwtop glass vial. The same concentration level of DEET was also prepared in this way to serve as a control and a comparison for relative repellency. A 50 cm^2 (5 cm×10 cm) patch of muslin cloth was rolled lengthwise and placed into each of the glass vials and sealed with a screwtop so it soaked up the solution. Just prior to the experiment, the pieces of treated cloth were removed from the vials, affixed to card stock tabs (5 cm×3 cm) with staples, and hung with masking tape on a rack to dry and allowed the volatile acetone to evaporate. Similar to the MED tests, volunteers wore a latex glove over their hands, a nylon stocking over their arm, and then wrapped a plastic Velcro-sealed sleeve over their entire forearm with a 32 cm^2 (4 cm×8 cm) window cut-out to allow mosquitoes to bite through. Dried cloth patches were stretched across the window in the plastic sleeve and held in place with masking tape. Volunteers placed their sleeve-covered arms into a screened cage for a one minute period with approximately 500 female Ae. aegypti mosquitoes that had been preselected for host-seeking behavior using a draw box. A cloth patch that received a 1% bite through level, equal to 5 mosquitoes that bit out of 500 mosquitoes, was considered a failure at that concentration. If 0-4 bites were received, then the treated cloth was still considered to be repellent at that concentration. The duration was recorded as the number of days an experimental chemical received a passing result, with day 0 being the day the sample was first dried. […] As with the tests conducted to determine CPT, volunteers in the study provided informed consent (IRB protocol #636-2005). The protocol was approved by the University of Florida Human Use Institutional Review Board.

[2] = tested on: An. albimanus; test: Minimum Effective Dosage (MED) test on treated cloth, mosquito repellency; type: in vivo, Anopheles albimanus; conditions: Table 4; for An. albimanus Minimum Effective Dosage, Average: mean of 5 volunteers; for An. albimanus Minimum Effective Dosage, M4: subject M4; for An. albimanus Minimum Effective Dosage, M4 / An. albimanus Minimum Effective Dosage, M5 / An. albimanus Minimum Effective Dosage, M8 / An. albimanus Minimum Effective Dosage, M9 / An. albimanus Minimum Effective Dosage, M10: highest concentration 1.500 mg/cm^2; for An. albimanus Minimum Effective Dosage, M5: subject M5; for An. albimanus Minimum Effective Dosage, M8: subject M8; for An. albimanus Minimum Effective Dosage, M9: subject M9; for An. albimanus Minimum Effective Dosage, M10: subject M10
[3] = tested on: Ae. aegypti; test: as above; type: in vivo, Aedes aegypti; conditions: for Ae. aegypti Minimum Effective Dosage, M9: human subject M9; for Ae. aegypti Minimum Effective Dosage, M10: human subject M10
Method: Bioassay for mosquito repellent activity: Repellency screening test for experimental chemicals were carried out to identify candidates that might be useful repellents. The repellent efficacy was compared to that of the standard repellent, DEET. Experimental compounds were assessed in one of two ways: (1) a range of concentration was evaluated to determine the minimum effective dosage (MED) which was the concentration threshold of where the repellent began to fail and allowed bites, or (2) a predetermined concentration of each repellent was applied to cloth and the activity was evaluated over several days (or in some cases months) (Katritzky, A. R., et al., Proc. Nat. Acad. Sci. (US), 105, 7359-7364 (2008); Katritzky, A. R., et al., Journal of Med. Entomol., 47: 924-938 (2010)). When conducting assays for repellency, a failure point was also predetermined for those measurements. Since experiments described herein used about 500 female mosquitoes per test, the failure point was set at 1% (equal to 5 bites) received during a test interval. From 3 to 5 volunteers participated in the screening of each set of chemicals.
Minimum Effective Dosage (MED) Test: The MED bioassays on treated cloth were a method of screening to determine the minimum amount of a repellent needed to prevent bites. Experimental compounds were prepared in solution by combining 0.15 g of experimental chemical with 2 mL of acetone in a 7.1 mL screwtop glass vial. This solution was then serially diluted to obtain nine concentrations when applied on to the cloth patch: 1.5, 0.75, 0.375, 0.187, 0.094, 0.047, 0.023, 0.011, and 0.006 mg/cm^2. The standard N,N-diethyl-3-methylbenzamide (DEET) was also tested at the same concentration levels to serve as a control and a comparison for relative repellency. A 50 cm^2 (5 cm×10 cm) patch of muslin cloth was rolled lengthwise and placed into each of the glass vials and scaled with a screwtop so it soaked up the solution. Just prior to the experiment, the pieces of treated cloth were removed from the vials, affixed to card stock tabs (5 cm×3 cm) with staples, and hung with masking tape on a rack to dry and allow acetone to evaporate. Volunteers wore a latex glove over their hands, a nylon stocking over their arm, and then wrapped a plastic Velcro-sealed sleeve over their entire forearm with a 32 cm^2 (4 cm×8 cm) window cut-out to allow mosquitoes to bite through. The nylon stocking acted as a barrier between the dried cloth and the skin, an additional precaution with experimental compounds. Dried cloth patches were stretched across the window in the plastic sleeve and held in place with masking tape. Volunteers placed their sleeve-covered arms into a screened cage for a one minute period with approximately 500 female Ae. aegypti mosquitoes that had been preselected for host-seeking behavior using a draw box (Posey, K. H., and C. E. Schreck, Mosquito News, 41: 566-568 (1981)). […] The MED recorded was the lowest passing concentration level tested for the experimental compound. […] All human volunteers in the study provided informed consent to participate of a protocol approved by the University of Florida Human Use Institutional Review Board (IRB #636-2005).

[4] = Table 1 preliminary assay, human subject M4, highest concentration 1.500 mg/cm^2
[5] = Table 1 preliminary assay, human subject M5, highest concentration 1.500 mg/cm^2
[6] = Table 1 preliminary assay, human subject M8, highest concentration 1.500 mg/cm^2
[7] = Table 1 preliminary assay, highest concentration 1.500 mg/cm^2
[8] = Table 1 preliminary assay, mean of 5 volunteers
[9] = Table 5, subject M4, highest dose 0.375 mg/cm2 (0.187 for 7)
[10] = Table 5, subject M5, highest dose 0.375 mg/cm2 (0.187 for 7)
[11] = Table 5, subject M8, highest dose 0.375 mg/cm2 (0.187 for 7)

CC1(C)C=Cc2c(CO)cccc2O1 [Compound 2]
Duration of protection, Proportion to DEET [1]: 3.00 | Duration of protection against Ae. aegypti, M-3 Days Protection [1]: 6 days | An. albimanus Minimum Effective Dosage, Average [2]: 0.234 mg/cm^2 | An. albimanus Minimum Effective Dosage, M4 [2]: 0.047 mg/cm^2 | An. albimanus Minimum Effective Dosage, M5 [2]: 0.375 mg/cm^2 | An. albimanus Minimum Effective Dosage, M8 [2]: 0.187 mg/cm^2 | An. albimanus Minimum Effective Dosage, M9 [2]: 0.375 mg/cm^2 | An. albimanus Minimum Effective Dosage, M10 [2]: 0.187 mg/cm^2 | mosquito repellent activity against Ae. aegypti (in words) ([3]; MED test on treated cloth): act as mosquito repellents | Ae. aegypti Minimum Effective Dosage, M4 [3, 4]: 0.011 mg/cm^2 | Ae. aegypti Minimum Effective Dosage, M5 [3, 5]: 0.011 mg/cm^2 | Ae. aegypti Minimum Effective Dosage, M8 [3, 6]: 0.011 mg/cm^2 | Ae. aegypti Minimum Effective Dosage, M9 [3, 7]: 0.094 mg/cm^2 | Ae. aegypti Minimum Effective Dosage, M10 [3, 7]: 0.047 mg/cm^2 | Ae. aegypti Minimum Effective Dosage, Average [3, 8]: 0.035 mg/cm^2 | Ae. aegypti Minimum Effective Dosage, F1 ([3]; Table 2, human subject F1, highest concentration 1.500 mg/cm^2): 0.023 mg/cm^2 | Ae. aegypti Minimum Effective Dosage, M1 ([3]; Table 2, human subject M1, highest concentration 1.500 mg/cm^2): 0.023 mg/cm^2 | Ae. aegypti Minimum Effective Dosage, M2 ([3]; Table 2, human subject M2, highest concentration 1.500 mg/cm^2): 0.023 mg/cm^2 | Ae. aegypti Minimum Effective Dosage, Average ([3]; Table 2, mean of 3 volunteers): 0.023 mg/cm^2 | Ae. aegypti Minimum Effective Dosage, Average ([3]; Table 5, mean of 3 volunteers): 0.009 mg/cm^2 | Ae. aegypti Minimum Effective Dosage, M4 [3, 9]: 0.011 mg/cm^2 | Ae. aegypti Minimum Effective Dosage, M5 [3, 10]: 0.011 mg/cm^2 | Ae. aegypti Minimum Effective Dosage, M8 [3, 11]: 0.006 mg/cm^2 | MED for ~100% Repellency (ED99), surface concentration ([3]; Table 7, treated cloth, female Aedes aegypti): 0.011 mg/cm^2

CCN(CC)C(=O)c1cccc(C)c1 [DEET, N,N-diethyl-3-methylbenzamide, reference compound]
Duration of protection, Proportion to DEET [1]: 1.00 | Duration of protection against Ae. aegypti, M-3 Days Protection [1]: 2 days | An. albimanus Minimum Effective Dosage, Average [2]: 0.025 mg/cm^2 | An. albimanus Minimum Effective Dosage, M4 [2]: 0.011 mg/cm^2 | An. albimanus Minimum Effective Dosage, M5 [2]: 0.047 mg/cm^2 | An. albimanus Minimum Effective Dosage, M8 [2]: 0.023 mg/cm^2 | An. albimanus Minimum Effective Dosage, M9 [2]: 0.023 mg/cm^2 | An. albimanus Minimum Effective Dosage, M10 [2]: 0.023 mg/cm^2 | Ae. aegypti Minimum Effective Dosage, M4 [3, 4]: 0.111 mg/cm^2 | Ae. aegypti Minimum Effective Dosage, M5 [3, 5]: 0.023 mg/cm^2 | Ae. aegypti Minimum Effective Dosage, M8 [3, 6]: 0.023 mg/cm^2 | Ae. aegypti Minimum Effective Dosage, M9 [3, 7]: 0.023 mg/cm^2 | Ae. aegypti Minimum Effective Dosage, M10 [3, 7]: 0.023 mg/cm^2 | Ae. aegypti Minimum Effective Dosage, Average [3, 8]: 0.021 mg/cm^2 | Ae. aegypti Minimum Effective Dosage, Average ([3]; Table 5, mean of 3 volunteers): 0.015 mg/cm^2 | Ae. aegypti Minimum Effective Dosage, M4 [3, 9]: 0.011 mg/cm^2 | Ae. aegypti Minimum Effective Dosage, M5 [3, 10]: 0.011 mg/cm^2 | Ae. aegypti Minimum Effective Dosage, M8 [3, 11]: 0.023 mg/cm^2
